The record followed here is US11712481B2, “Lipid nanoparticle formulations” (Acuitas Therapeutics, Inc., priority 2016, dated 2023).

SMILES strings stand for the structures.

The test system of data set [1] is Photinus pyralis (firefly) luciferase mRNA expression in liver. Description: Luciferase mRNA in vivo evaluation using LNP compositions, liver. As to conditions: LNP 47.5:10:40.7:1.8, 1 mg/kg, mice. How it is done: (§1) Luciferase mRNA in vivo evaluation studies were performed in 6-8 week old female C57BL/6 mice (Charles River) 8-10 week old CD-1 (Harlan) mice (Charles River) according to guidelines established by an institutional animal care committee (ACC) and the Canadian Council on Animal Care (CCAC). Varying doses of mRNA-lipid nanoparticle were systemically administered by tail vein injection and animals euthanized at a specific time point (e.g., 4 hours) post-administration. Liver and spleen were collected in pre-weighed tubes, weights determined, immediately snap frozen in liquid nitrogen and stored at −80° C. until processing for analysis.
For liver, approximately 50 mg was dissected for analyses in a 2 mL FastPrep tubes (MP Biomedicals, Solon Ohio). ¼″ ceramic sphere (MP Biomedicals) was added to each tube and 500 μL of Glo Lysis Buffer—GLB (Promega, Madison Wis.) equilibrated to room temperature was added to liver tissue. Liver tissues were homogenized with the FastPrep24 instrument (MP Biomedicals) at 2×6.0 m/s for 15 seconds. Homogenate was incubated at room temperature for 5 minutes prior to a 1:4 dilution in GLB and assessed using SteadyGlo Luciferase assay system (Promega). Specifically, 50 μL of diluted tissue homogenate was reacted with 50 μL of SteadyGlo substrate, shaken for 10 seconds followed by 5 minute incubation and then quantitated using a CentroXS^3 LB 960 luminometer (Berthold Technologies, Germany). The amount of protein assayed was determined by using the BCA protein assay kit (Pierce, Rockford Ill.). Relative luminescence units (RLU) were then normalized to total μg protein assayed. To convert RLU to ng luciferase a standard curve was generated with QuantiLum Recombinant Luciferase (Promega). For a representative formulation having a combination of two cationic lipids, a four-hour time point was chosen for an efficacy evaluation of the lipid formulation.
(§2) The FLuc mRNA (L-6107) from Trilink Biotechnologies will express a luciferase protein, originally isolated from the firefly, Photinus pyralis. FLuc is commonly used in mammalian cell culture to measure both gene expression and cell viability. It emits bioluminescence in the presence of the substrate, luciferin. This capped and polyadenylated mRNA is fully substituted with 5-methylcytidine and pseudouridine.
LNP's were formulated by an in-line mixing process as described in Example 1. […] The size and polydispersity index data were generated using Malvern Nanosizer ZS. The diameters given are intensity weighted means. Encapsulation was determined using a fluorescent intercalating dye based assay (Ribogreen).

Data set [2] in a line: Particle size and polydispersity index by light scattering (Malvern Zetasizer/Nanosizer ZS). The data set is classed as physicochemical. As to conditions: LNP 47.5:10:40.7:1.8. Here is the method: Cationic lipid(s), DSPC, cholesterol and PEG-lipid were solubilized in ethanol at a desired molar ratio (e.g., 50:0 to 10:28.5 to 38.5:1.5 to 1.7 or 47.5:10:40.8:1.7). Lipid nanoparticles (LNP) were prepared at a total lipid to mRNA weight ratio of approximately 10:1 to 30:1. The mRNA was diluted to 0.2 mg/mL in 10 to 50 mM citrate buffer, pH 4. Syringe pumps were used to mix the lipid solution (i.e., LNP components solubilized in ethanol) with the mRNA aqueous solution at a ratio of about 1:5 to 1:3 (vol/vol) with total flow rates above 15 mL/min. The ethanol was then removed and the external buffer replaced with PBS by dialysis. Finally, the lipid nanoparticles were filtered through a 0.2 μm pore sterile filter. Lipid nanoparticle particle size was 55-95 nm diameter, and in some instances approximately 70-90 nm as determined by quasi-elastic light scattering using a Malvern Zetasizer Nano ZS (Malvern, UK).
(§3) LNP's were formulated by an in-line mixing process as described in Example 1. These formulations were prepared such that the mRNA to cationic lipid ratio was held constant (N/P=6.3). The size and polydispersity index data were generated using Malvern Nanosizer ZS. The diameters given are intensity weighted means. Encapsulation was determined using a fluorescent intercalating dye based assay (Ribogreen). […]
(§4) The effect of the proportion of mRNA to total lipid was investigated for a particular standard set of lipid proportions across three representative cationic lipids. LNP's were formulated by an in-line mixing process as described in Example 1. The lipid proportions were held constant at 47.5:10:40.7:1.8 for the cationic lipid, DSPC, Cholesterol and PEG-lipid respectively. The mRNA to lipid ratios are described in terms of the N/P ratio where N represents the moles of cationic lipid and P represents the moles of phosphate present as part of the nucleic acid backbone. Ratios described in this way are independent of the size of the nucleic acid. The size and polydispersity index data were generated using Malvern Nanosizer ZS. The diameters given are intensity weighted means. Encapsulation was determined using a fluorescent intercalating dye based assay (Ribogreen).

Data set [3] deals with Photinus pyralis (firefly) luciferase mRNA expression in spleen. Description: Luciferase mRNA in vivo evaluation using LNP compositions, spleen. Conditions: LNP 47.5:10:40.7:1.8, 1 mg/kg, mice. Here is the method: as §1, §2, §4
Data set [4] in a line: Encapsulation by fluorescent intercalating dye based assay (Ribogreen). The data set is classed as physicochemical. How it is done: as §3, §4
Data set [5] is described as follows: Determination of pKa of formulated lipids (TNS fluorescence assay). In kind it is physicochemical. Conditions: lipids of Formula I, formulated in LNP cationic lipid/DSPC/cholesterol/PEG-lipid 50/10/38.5/1.5 mol % or cationic lipid alone. Here is the method: As described elsewhere, the pKa of formulated cationic lipids is correlated with the effectiveness of LNPs for delivery of nucleic acids (see Jayaraman et al, Angewandte Chemie, International Edition (2012), 51(34), 8529-8533; Semple et al, Nature Biotechnology 28, 172-176 (2010)). A representative preferred range of pKa is ˜5 to ˜7. […] Lipid nanoparticles comprising of cationic lipid/DSPC/cholesterol/PEG-lipid (50/10/38.5/1.5 mol %) or a cationic lipid alone in PBS at a concentration of 0.4 mM total lipid are prepared using the in-line process as described in Example 1. TNS was prepared as a 100 μM stock solution in distilled water. Vesicles were diluted to 24 μM lipid in 2 mL of buffered solutions containing 10 mM HEPES, 10 mM MES, 10 mM ammonium acetate, 130 mM NaCl, where the pH ranged from 2.5 to 11. An aliquot of the TNS solution was added to give a final concentration of 1 μM and following vortex mixing fluorescence intensity was measured at room temperature in a SLM Aminco Series 2 Luminescence Spectrophotometer using excitation and emission wavelengths of 321 nm and 445 nm. A sigmoidal best fit analysis was applied to the fluorescence data and the pKa was measured as the pH giving rise to half-maximal fluorescence intensity.

Where [6] appears, read: N/P 3:1, LNP cationic lipid/DSPC/Cholesterol/PEG-lipid 47.5:10:40.7:1.8.

Take `CCCCCCCCC(CCCCCC)C(=O)OCCCCCCN(CCCCCCOC(=O)C(CCCCCC)CCCCCCCC)CCN(C)C` (stereo not shown) [Compound I-5]: the “Liver Luc Activity” value in data set [1] (N/P 3:1) stood at 7689 ng/g; in data set [1] (N/P 6:1) it was 9509 ng/g; in data set [1] (N/P 12:1), 12826 ng/g; in data set [1] (N/P 22:1), 14538 ng/g. Moreover, the PDI in data set [2] (N/P 3:1) was found to be 0.072; in data set [2] (N/P 6:1) it was 0.028; in data set [2] (N/P 12:1), 0.026; in data set [2] (N/P 22:1), 0.039. Further, the Size is reported as 86 nm in data set [2] (N/P 3:1), 81 nm in data set [2] (N/P 6:1), 75 nm in data set [2] (N/P 12:1) and 81 nm in data set [2] (N/P 22:1). Further, the “Spleen Luc Activity” value worked out at 188 ng/g in data set [3] (N/P 3:1), 236 ng/g in data set [3] (N/P 6:1), 184 ng/g in data set [3] (N/P 12:1) and 247 ng/g in data set [3] (N/P 22:1). In addition, the Encapsulation in data set [4] (setting [6]) stood at 94%; in data set [4] (N/P 6:1, LNP 47.5:10:40.7:1.8) it was 96%; in data set [4] (N/P 12:1, LNP 47.5:10:40.7:1.8), 98%; in data set [4] (N/P 22:1, LNP 47.5:10:40.7:1.8), 99%.
With `CCCCCCCCCCCCC(CCCCCCCCCC)C(=O)OCCCCCCN(CCCCCCOC(=O)C(CCCCCCCCCC)CCCCCCCCCC)CCN(C)C` (stereo not shown) [Compound I-39], the pKa – broadly, the pH at which an ionisable group is half protonated – in data set [5] worked out at 5.82.
As to `CCCCCCCCC(=O)N(CCCN(C)C)C(CCCCCCCCC(=O)OCC(CCCC)CCCCCC)CCCCCCCCC(=O)OCC(CCCC)CCCCCC` (stereo not shown) [II-9], the “Liver Luc Activity” value in data set [1] (N/P 3:1) is given as 6727 ng/g; in data set [1] (N/P 6:1) it was 12209 ng/g; in data set [1] (N/P 12:1) it was 18330 ng/g; in data set [1] (N/P 22:1) it was 12634 ng/g. For the same compound, the PDI in data set [2] (N/P 3:1) turned out to be 0.054; in data set [2] (N/P 6:1), 0.033; in data set [2] (N/P 12:1), 0.014; in data set [2] (N/P 22:1), 0.017. Moreover, the Size stood at 94 nm in data set [2] (N/P 3:1), 88 nm in data set [2] (N/P 6:1), 84 nm in data set [2] (N/P 12:1) and 84 nm in data set [2] (N/P 22:1). Moreover, the “Spleen Luc Activity” value in data set [3] (N/P 3:1) amounted to 831 ng/g; in data set [3] (N/P 6:1), 642 ng/g; in data set [3] (N/P 12:1), 514 ng/g; in data set [3] (N/P 22:1) it was 439 ng/g. Moreover, the Encapsulation in data set [4] (setting [6]) came to 92%; in data set [4] (N/P 6:1, LNP 47.5:10:40.7:1.8) it was 95%; in data set [4] (N/P 12:1, LNP 47.5:10:40.7:1.8), 98%; in data set [4] (N/P 22:1, LNP 47.5:10:40.7:1.8), 98%.
In the case of `CCCCCCC(CCCC)C(=O)OCCCCCCCCCN(CCCO)CCCCCCCCCOC(=O)C(CCCC)CCCCCC` (stereo not shown) [III-45], the “Liver Luc Activity” value in data set [1] (N/P 3:1) came out at 13308 ng/g; in data set [1] (N/P 6:1) it was 15395 ng/g; in data set [1] (N/P 12:1) it was 16596 ng/g; in data set [1] (N/P 22:1) it was 16005 ng/g. Besides, the PDI in data set [2] (N/P 3:1) was determined as 0.089; in data set [2] (N/P 6:1), 0.068; in data set [2] (N/P 12:1), 0.074; in data set [2] (N/P 22:1), 0.083. Further, the Size in data set [2] (N/P 3:1) was 87 nm; in data set [2] (N/P 6:1), 74 nm; in data set [2] (N/P 12:1) it was 65 nm; in data set [2] (N/P 22:1), 57 nm. In addition, the “Spleen Luc Activity” value worked out at 410 ng/g in data set [3] (N/P 3:1), 356 ng/g in data set [3] (N/P 6:1), 243 ng/g in data set [3] (N/P 12:1) and 353 ng/g in data set [3] (N/P 22:1). For the same compound, the Encapsulation in data set [4] (setting [6]) is listed as 75%; in data set [4] (N/P 6:1, LNP 47.5:10:40.7:1.8), 86%; in data set [4] (N/P 12:1, LNP 47.5:10:40.7:1.8), 91%; in data set [4] (N/P 22:1, LNP 47.5:10:40.7:1.8), 94%.
